Results: patent publication US10139394B2, “Method for controlling cancer metastasis or cancer cell migration by modulating the cellular level of lysyl tRNA synthetase” (Medicinal Bioconvergence Research Center, priority 2008, dated 2018)

What was measured:
[1] = tested on: membrane translocation of KRS; assay: Laminin-dependent membrane translocation of KRS and 67LR, cell fractionation and Western blotting; type: cell-based; details: A549 cells; inhibitor for 3 hr, then laminin for 1 hr; FIG. 9 upper
Protocol: (§1) In FIG. 7, A549 cells were treated with laminin (10 ug/ml) and the level of 67LR, 37LRP and KRS was determined by Western blotting at the indicated times. Hsp90 and Cadherin were used as markers for cytoplasm and membrane, respectively. In FIG. 8, A549 cells untreated or treated with laminin for 1 h were subjected to immunofluorescence staining with anti-67LR (MLuC5, Santacruz, sc-59732) (red) and -KRS antibodies (green). In FIG. 9, A549 cells were treated with U73122 (U), staurosporin (ST) and LY294002 (LY) that inhibit PLC-gamma, PKC and PI3K, respectively, for 3 hr, then with laminin for 1 hr and checked how these kinase inhibitors would affect the membrane and cytoplasmic level of 67LR and KRS. In FIG. 10, A549 cells were transfected with Myc-KRS and incubated for 24 h. The cells were treated with the indicated chemicals and then with laminin as above. Myc-KRS was immunoprecipitated, and immunoblotted with anti-p-Thr, -Ser, and -Tyr antibodies. In FIG. 11, A549 cells were transfected with Myc-KRS and cultivated for 24 hr. The transfectants were pre-treated with LY294002 for 3 hr and then treated with laminin for 1 h. Myc-KRS was immunoprecipitated and co-precipitation of 67LR was determined by Western blotting. IgG was used as a control for immunoprecipitation. In FIG. 12, A549 cells were cultivated in the absence and presence of laminin and LY294002 as indicated. EPRS (glutamyl-prolyl-tRNA synthetase) was immunoprecipitated with its specific antibody (AbCam), and co-immunoprecipitation of KRS was determined by Western blotting (upper). The immune-depleted supernatant (ID) were subjected to Western blottingting with anti-KRS and -EPRS antibodies.
The cells were lysed with 20 mM Tris-HCl (pH 7.4) buffer containing 150 mM NaCl, 0.5% TritonX-100, 0.1% SDS, and protease inhibitor. The protein extracts were incubated with normal IgG and protein G agarose for 2 hr and then centrifuged to remove nonspecific IgG binding proteins. […]

phosphorylation of KRS = assay: Laminin-induced phosphorylation of Myc-KRS, immunoprecipitation and immunoblot with anti-p-Thr, -Ser, -Tyr antibodies; type: cell-based, human; details: Myc-KRS transfected A549 cells; FIG. 10
Protocol: as §1, with “IgG was used as a control for immunoprecipitation. In FIG. 12, A549 cells were cultivated in the absence and presence of laminin and LY294002 as indicated.” left out, “The immune-depleted supernatant (ID) were subjected to Western blottingting with anti-KRS and -EPRS antibodies.” left out

A549 cells = assay: Cell migration assay in Transwell chamber; type: cell-based; details: purified KRS at different concentration in lower chamber, 6 hr, FIG. 25
Protocol: In FIG. 18, A549 cells were transfected with the indicated plasmids, incubated in the absence and presence of laminin and their effect on cell migration was determined by measuring the migrated cells in transwell chamber as described. The numbers of the cells passed through the membrane were counted and shown in each panel. The experiments were performed three times. In FIG. 19, the cells treated as above were used to determine MMP-2 activity and level by zymography and Western blotting, respectively. In FIG. 20, Breast carcinoma 4T-1 cells were transfected with the indicated siRNA and subcutaneously injected to the back of Balb/C mice. After 21 days, mouse lungs were isolated and tumor nodules over 1 mm in diameter were counted. In FIG. 21, two different 4T-1 cells stably expressing exogenously introduced KRS (KRS-1 and -2) were also inoculated as above and the tumor nodules were counted 30 days after injection. […]
FIGS. 24 to 27 show effect of intracellular and extracellular KRS on cell migration, protein synthesis and cell cycle. In FIG. 24, Migration of A549 cells incubated in the absence of laminin was determined was determined by measuring the migrated cells in Transwell chamber. […] After 6 hr of incubation, the migrant were counted. […] In FIG. 27, A549 cells transfected as indicated were fixed and stained with propidium iodide, and their cell cycle was determined by flow cytometry. […]

COc1ccc2c(c1)CC[C@@H]1[C@@H]2CC[C@]2(C)[C@@H](NCCCCCCN3C(=O)C=CC3=O)CC[C@@H]12 [U73122]
Laminin-dependent increase of KRS and 67LR in the membrane fraction [1]: still showed laminin-dependent induction of 67LRS

CN[C@@H]1C[C@H]2O[C@@](C)([C@@H]1OC)n1c3ccccc3c3c4c(c5c6ccccc6n2c5c31)C(=O)NC4 [staurosporin, reference compound]
Laminin-dependent increase of KRS and 67LR in the membrane fraction [1]: still showed laminin-dependent induction of 67LRS | laminin-induced phosphorylated KRS at threonine and serine in presence of inhibitor (phosphorylation of KRS): did not give any effect

purified KRS: purified human lysyl-tRNA synthetase protein added extracellularly
cell migration (chemotactic activity of extracellular KRS) (A549 cells): little affected
